Assay results from article PMC10247784, “Physiological activation of human and mouse bitter taste receptors by bile acids” (Communications Biology, 2023).
Where “and” joins values, the source holds several entries; their conditions need not be identical. Equal values may be shown once.

Target: T1, human TAS2R1 (Homo sapiens, UniProt Q9NYW7)
T1 construct: expressed in transfected cells; host or cells: HEK293T-Gα16gust44
T1 sequence (Q9NYW7 1-299): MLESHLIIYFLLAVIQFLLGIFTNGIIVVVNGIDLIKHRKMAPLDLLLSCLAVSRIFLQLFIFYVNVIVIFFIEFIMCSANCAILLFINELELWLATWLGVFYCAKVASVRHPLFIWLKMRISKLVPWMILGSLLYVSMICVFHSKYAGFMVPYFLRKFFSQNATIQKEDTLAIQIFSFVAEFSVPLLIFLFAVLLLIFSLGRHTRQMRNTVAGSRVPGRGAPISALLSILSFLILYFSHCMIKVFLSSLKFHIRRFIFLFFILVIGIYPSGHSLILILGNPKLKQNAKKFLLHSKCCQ
Assay: Calcium imaging assay (FLIPR), HEK293T-Gα16gust44 cells transfected with human TAS2R1
Assay type: cell-based
Method: This set of bile acids was chosen because of their commercial availability in high purities, their diversity within the class of bile acids and their previous detection and quantitation in human blood. Stock solutions were prepared in DMSO.
As basal growth medium for the HEK293T-Gα16gust44 cell line[17],[59] served Dulbecco’s modified eagle medium (DMEM) (Thermo Fisher Scientific, Darmstadt, Germany) supplemented with 10 % fetal bovine serum (Sigma-Aldrich, Steinheim, Germany), 2 mM L-glutamine (Sigma-Aldrich, Steinheim, Germany), 100 units/ml penicillin (Sigma Aldrich, Steinheim, Germany) and 100 µg/ml streptomycin (Sigma Aldrich, Steinheim, Germany). Growth conditions were 37 °C, 5 % CO2 and saturated air-humidity[60].
HEK293T-Gα16gust44 cells were seeded on poly-D-lysine (10 µg/ml) coated 96-well plates to reach a confluence of 40-60 % the next day. For transient transfection 150 ng of plasmid DNA containing the receptor of interest and 0.3 µl lipofectamine 2000 (Thermo Fisher Scientific, Darmstadt, Germany) per well were used and transfection took place according to the manual of lipofectamine 2000. […] The empty vector DNA (mock) was transfected as negative control[14],[41].
Cells were loaded using the calcium-sensitive fluorescent dye Fluo-4-AM (Abcam, Cambridge, Great Britain) in the presence of 2.5 mM probenecid (Sigma-Aldrich, Steinheim, Germany) the day after transfection[13],[41]. 1 h after loading, cells were washed with C1 buffer using a BioTek Cell Washer, incubated in the dark for half an hour and washed again. For automated agonist application and measurement of fluorescence changes, a FLIPR^TETRA device (Molecular Devices, San José, United States) was used. Viability of cells was tested by application of 100 nM Somatostatin 14 (Bachem, Bubendorf, Switzerland)[42].
Measured data were negative control corrected by subtracting the signal of the mock-transfected cells and exported to Microsoft Excel using the FLIPR software ScreenWorks 4.2. In Microsoft Excel software, standardization of maximum fluorescence intensities to the basal fluorescence and normalization to the buffer-only control was done to calculate the relative fluorescence changes (ΔF/F).
Initial screening experiments performed in duplicate wells were confirmed by at least one replication and representative traces were selected for display. All dose-response relationships were determined by three independent experiments (biological replicates) performed in duplicates (technical replicates). Threshold concentrations, defined as lowest substance concentrations leading to statistically significant elevated fluorescence changes in receptor-transfected cells compared with empty vector-transfected cells, were determined using SigmaPlot with Student’s t-test to evaluate statistical significance (p < 0.01).

In the case of `C[C@H](CCC(=O)O)[C@H]1CC[C@H]2[C@@H]3[C@H](O)C[C@@H]4C[C@H](O)CC[C@]4(C)[C@H]3CC[C@]12C` [Chenodeoxycholic Acid, chenodeoxycholic acid], the “Efficacy = maximal amplitude (ΔF/F)” value (TAS2R1, bile acids, mean) is reported as 0.1118, the “Efficacy (maximal amplitude ΔF/F), individual data points” value (TAS2R1, bile acids, single replicates, listed as CDCA) is reported as 0.09822 and 0.1595 and 0.07759 and the RLU (Time 0 s) is reported as 0 RLU. It also gave an RLU (Time 2.015 s) of 19.0362 RLU, an RLU (Time 4.015 s) of 1.217 RLU and an RLU (Time 6.015 s) of -17.015 RLU. The RLU (Time 8.015 s) was -2.669 RLU, the RLU (Time 12.015 s) was 20.3444 RLU and the RLU (Time 14.015 s) was 20.4897 RLU. The RLU (Time 16.015 s) was 20.4897 RLU, the RLU (Time 18.015 s) was 0.1896 RLU and the RLU (Time 18.796 s) was 35.4441 RLU. For the same compound, the RLU (Time 20.796 s) was 34.972 RLU, the RLU (Time 22.796 s) was 66.6032 RLU and the RLU (Time 24.796 s) was 169.759 RLU. For the same compound, the RLU (Time 26.796 s) was 276.637 RLU, the RLU (Time 28.796 s) was 430.728 RLU and the RLU (Time 30.796 s) was 521.85 RLU. The RLU (Time 32.796 s) was 667.246 RLU, the RLU (Time 34.796 s) was 744.49 RLU and the RLU (Time 36.796 s) was 777.672 RLU. For the same compound, the RLU (Time 38.796 s) was 835.786 RLU, the RLU (Time 40.796 s) was 853.586 RLU and the RLU (Time 42.796 s) was 876.11 RLU. It also gave an RLU (Time 44.796 s) of 905.241 RLU, an RLU (Time 46.796 s) of 902.191 RLU and an RLU (Time 48.796 s) of 919.121 RLU. The RLU (Time 50.796 s) was 927.172 RLU, the RLU (Time 52.796 s) was 893.665 RLU and the RLU (Time 54.796 s) was 936.083 RLU. The RLU (Time 56.796 s) was 944.124 RLU, the RLU (Time 58.796 s) was 915.714 RLU and the RLU (Time 60.796 s) was 876.524 RLU. The RLU (Time 62.796 s) was 877.876 RLU, the RLU (Time 64.796 s) was 906.896 RLU and the RLU (Time 66.796 s) was 861.974 RLU. For the same compound, the RLU (Time 68.796 s) was 872.092 RLU, the RLU (Time 70.796 s) was 871.317 RLU and the RLU (Time 72.796 s) was 854.469 RLU. It also gave an RLU (Time 74.796 s) of 844.188 RLU, an RLU (Time 76.796 s) of 841.862 RLU and an RLU (Time 78.796 s) of 815.084 RLU. The RLU (Time 80.796 s) was 833.544 RLU, the RLU (Time 82.796 s) was 792.555 RLU and the RLU (Time 84.796 s) was 783.457 RLU. For the same compound, the RLU (Time 86.796 s) was 757.585 RLU, the RLU (Time 88.796 s) was 790.002 RLU and the RLU (Time 90.796 s) was 748.006 RLU. For the same compound, the RLU (Time 92.796 s) was 752.186 RLU, the RLU (Time 94.796 s) was 735.827 RLU and the RLU (Time 96.796 s) was 731.254 RLU. The RLU (Time 98.796 s) was 711.692 RLU, the RLU (Time 100.796 s) was 698.367 RLU and the RLU (Time 102.796 s) was 713.847 RLU. It also gave an RLU (Time 104.796 s) of 673.465 RLU, an RLU (Time 106.796 s) of 693.426 RLU and an RLU (Time 108.796 s) of 681.535 RLU. The RLU (Time 110.796 s) was 647.896 RLU, the RLU (Time 112.796 s) was 643.349 RLU and the RLU (Time 114.796 s) was 607.76 RLU. The RLU (Time 116.796 s) was 609.573 RLU, the RLU (Time 118.796 s) was 614.947 RLU and the RLU (Time 120.796 s) was 582.22 RLU. The RLU (Time 122.796 s) was 589.185 RLU, the RLU (Time 124.796 s) was 584.345 RLU and the RLU (Time 126.796 s) was 601.503 RLU. The RLU (Time 128.796 s) was 551.854 RLU, the RLU (Time 130.796 s) was 581.558 RLU and the RLU (Time 132.796 s) was 570.089 RLU. The RLU (Time 134.796 s) was 541.966 RLU, the RLU (Time 136.796 s) was 537.391 RLU and the RLU (Time 137.562 s) was 528.381 RLU. The RLU (Time 143.562 s) was 528.401 RLU, the RLU (Time 149.562 s) was 492.752 RLU and the RLU (Time 155.562 s) was 464.959 RLU. The RLU (Time 161.562 s) was 428.355 RLU, the RLU (Time 167.562 s) was 423.067 RLU and the RLU (Time 173.562 s) was 376.724 RLU. For the same compound, the RLU (Time 179.562 s) was 392.276 RLU, the RLU (Time 185.562 s) was 341.893 RLU and the RLU (Time 191.562 s) was 346.95 RLU. The RLU (Time 197.562 s) was 320.481 RLU, the RLU (Time 203.562 s) was 327.574 RLU and the RLU (Time 209.562 s) was 318.301 RLU. It also gave an RLU (Time 215.562 s) of 277.825 RLU, an RLU (Time 221.562 s) of 283.821 RLU and an RLU (Time 227.562 s) of 172.224 RLU. For the same compound, the RLU (Time 233.562 s) was 155.786 RLU, the RLU (Time 239.562 s) was 141.722 RLU and the RLU (Time 245.562 s) was 124.55 RLU. The RLU (Time 293.562 s) was 126.733 RLU, the RLU (Time 299.562 s) was 134.725 RLU and the RLU (calcium trace, sheet TAS2R1, Time 305.562 s) was 138.341 RLU. For the same compound, the RLU (calcium trace, sheet TAS2R1, Time 311.562 s) was 138.414 RLU, the RLU (calcium trace, sheet TAS2R1, Time 317.562 s) was 144.044 RLU and the RLU (calcium trace, sheet TAS2R1, Time 323.562 s) was 138.244 RLU. It also gave an RLU (calcium trace, sheet TAS2R1, Time 329.562 s) of 121.3 RLU, an RLU (calcium trace, sheet TAS2R1, Time 335.562 s) of 104.786 RLU and an RLU (calcium trace, sheet TAS2R1, Time 341.562 s) of 124.793 RLU. The RLU (calcium trace, sheet TAS2R1, Time 347.562 s) was 124.739 RLU, the RLU (calcium trace, sheet TAS2R1, Time 353.562 s) was 136.304 RLU and the RLU (calcium trace, sheet TAS2R1, Time 359.562 s) was 146.172 RLU. The “Δ F/F” value (conc. 0,01 mM, TAS2R1) was 0.1118, the “Δ F/F” value (conc. 0,00003 mM, TAS2R1) was -0.002448 and the “Δ F/F” value (conc. 0,0001 mM, TAS2R1) was -0.01316. For the same compound, the “Δ F/F” value (conc. 0,0003 mM, TAS2R1) was -0.003718, the “Δ F/F” value (conc. 0,001 mM, TAS2R1) was 0.01001 and the “Δ F/F” value (conc. 0,003 mM, TAS2R1) was 0.03254. The “Activation threshold concentration TAS2R1” value (lowest concentration with significantly increased fluorescence vs empty vector (p < 0.01)) was 3 µM and 3.00 µM and the “Receptor response TAS2R1” value (screening) was “activated”.
